# Structures can show the parent of a compound that is named as a salt.
# Legend:
# Vasopressin V2 [1] = test: Vasopressin V2 agonist effects of test compounds in normal conscious water-loaded rats; format: in vivo; conditions: oral dose of 10 mg/kg, urine collected for four hours, Sprague-Dawley (CD) rats; for Changes in Urinary Osmolality: osmolality changes expressed as percent of control; for Urine Volume (% decrease): percent decrease in urine volume vs. control, vehicle 20% DMSO in 2.5% preboiled corn starch
# Source text: Vasopressin V2 Agonist Effects of Test Compounds in Normal Conscious Water-Loaded Rats:
# Male or female normotensive Sprague-Dawley rats (Charles River Laboratories, Inc., Kingston, NY) of 350-500 g body weight were supplied with standard rodent diet (Purina Rodent Lab. Chow 5001) and water ad libitum. On the day of test, rats were placed individually into metabolic cages equipped with devices to separate the feces from the urine and containers for collection of urine. A test compound or a reference agent was given at an oral dose of 10 mg/kg in a volume of 10 ml/kg. The vehicle used was 20% dimethylsulfoxide (DMSO) in 2.5% preboiled corn starch. Thirty minutes after dosing the test compound, rats were gavaged with water at 30 ml/kg into the stomach using a feeding needle. During the test, rats were not provided with water or food. Urine was collected for four hours after dosing of the test compound. At the end of four hours, urine volume was measured. Urinary osmolality was determined using a Fiske One-Ten Osmometer (Fiske Associates, Norwood, MA, 02062) or an Advanced CRYOMATIC Osmometer, Model 3C2 (Advanced Instruments, Norwood, MA). Determinations of Na^+, K^+ and Cl^- ion were carried out using ion specific electrodes in a Beckman SYNCHRON EL-ISE Electrolyte System analyzer. The urinary osmolality should increase proportionally. In the screening test, two rats were used for each compound. If the difference in the urine volume of the two rats was greater than 50%, a third rat was used.
# Vasopressin V2 [2] = test: as above; format: in vivo; conditions: Sprague-Dawley (CD) rats; for Urine Volume (% decrease): percent decrease in urine volume vs. control, dose 1 mg/kg; for Changes in Urinary Osmolality: percent of control
Structure (SMILES),Changes in Urinary Osmolality (Vasopressin V2 [1]),Urine Volume (% decrease) (Vasopressin V2 [1]),other results
"CN1c2ccccc2N(C(=O)c2ccc(-c3ccn(C)n3)cc2Cl)Cc2cccnc21 [Example 20, [2-Chloro-4-(1-methyl-1H-pyrazol-3-yl)-phenyl]-(5-methyl-5,11-dihydro-pyrido[2,3-b][1,5]benzodiazepin-10-yl)-methanone]",89% of control,10,
"Cc1ccnn1-c1ccc(C(=O)N2Cc3cccnc3Nc3ccccc32)c(C(F)(F)F)c1 [Example 6, (5,11-Dihydro-pyrido[2,3-b][1,5]benzodiazepin-10-yl)-[4-(5-methyl-pyrazol-1-yl)-2-trifluoromethyl-phenyl]-methanone solvate with 0.09 dichloromethane and 0.13 ethyl acetate]",103% of control,25,
"Cc1ccn(-c2ccc(C(=O)N3Cc4cccnc4Nc4ccccc43)c(F)c2)n1 [Example 9, (5,11-Dihydro-pyrido[2,3-b][1,5]benzodiazepin-10-yl)-[2-fluoro-4-(3-methyl-pyrazol-1-yl)-phenyl]-methanone 0.19 hydrate]",372% of control,59,
"O=C(c1ccc(-n2ccc(C(F)(F)F)n2)cc1C(F)(F)F)N1Cc2cccnc2Nc2ccccc21 [Example 7, (5,11-Dihydro-pyrido[2,3-b][1,5]benzodiazepin-6-yl)-[2-trifluoromethyl-4-(3-trifluoromethyl-pyrazol-1-yl)-phenyl]-methanone]",283% of control,69,
"O=C(c1ccc(-n2ccc(C(F)(F)F)n2)cc1Cl)N1Cc2cccnc2Nc2ccccc21 [Example 17, [2-Chloro-4-(3-trifluoromethyl-pyrazol-1-yl)-phenyl]-(5,11-dihydro-pyrido[2,3-b][1,5]benzodiazepin-6-yl)-methanone]",262% of control,72,
"Cc1ccn(-c2ccc(C(=O)N3Cc4cccnc4Oc4ccccc43)c(Cl)c2)n1 [Example 16, [2-Chloro-4-(3-methyl-pyrazol-1-yl)-phenyl]-(11H-5-oxa-4,10-diazadibenzo[a,d]cyclohepten-10-yl)-methanone]",142% of control,41,
"CC(C)(C)c1ccn(-c2ccc(C(=O)N3Cc4cccnc4Nc4ccccc43)c(C(F)(F)F)c2)n1 [Example 13, [4-(3-tert-Butyl-pyrazol-1-yl)-2-trifluoromethyl-phenyl]-(5,11-dihydro-pyrido[2,3-b][1,5]benzodiazepin-10-yl)-methanone]",106% of control,6,
"Cc1ccn(-c2ccc(C(=O)N3Cc4cccnc4Nc4ccccc43)c(Cl)c2)n1 [Example 1, [2-Chloro-4-(3-methyl-pyrazol-1-yl)-phenyl]-(5,11-dihydro-pyrido [2,3-b] [1,5]benzodiazepin-6-yl)-methanone]",272% of control,80,
"Cc1ccn(-c2ccc(C(=O)N3Cc4cccnc4Nc4ccccc43)c(Br)c2)n1 [Example 3, [2-Bromo-4-(3-methyl-pyrazol-1-yl)-phenyl]-(5,11-dihydro-pyrido[2,3-b] [1,5]benzodiazepin-6-yl)-methanone]",346% of control,85,
"Cc1ccn(-c2ccc(C)c(C(=O)N3Cc4cccnc4Nc4ccccc43)c2)n1 [Example 12, (5,11-Dihydro-pyrido[2,3-b][1,5]benzodiazepin-10-yl)-[2-methyl-5-(3-methyl-pyrazol-1-yl)-phenyl]-methanone]",101% of control,-2,
"Cc1ccn(-c2ccc(C(=O)N3Cc4cccnc4Nc4ccccc43)c(C(F)(F)F)c2)n1 [Example 4, (5,11-Dihydro-pyrido[2,3-b][1,5]benzodiazepin-6-yl)-[4-(3-methyl-pyrazol-1-yl)-2-trifluoromethyl-phenyl]-methanone]",339% of control,87,
"Cc1ccn(-c2ccc(C(=O)N3Cc4cccnc4N(C)c4ccccc43)c(Cl)c2)n1 [Example 11, [2-Chloro-4-(3-methyl-pyrazol-1-yl)-phenyl]-(5-methyl-5,11-dihydro-pyrido[2,3-b][1,5]benzodiazepin-10-yl)-methanone]",375% of control,71,
"Cn1ccc(-c2ccc(C(=O)N3Cc4cccnc4Nc4ccccc43)c(Cl)c2)n1 [Example 18, [2-Chloro-4-(1-methyl-1-H-pyrazol-3-yl)-phenyl]-(5,11-dihydro-pyrido[2,3-b][1,5]benzodiazepin-10-yl)-methanone]",234% of control,76,
"Cc1ccn(-c2cc(F)ccc2C(=O)N2Cc3cccnc3Nc3ccccc32)n1 [Example 10, (5,11-Dihydro-pyrido[2,3-b][1,5]benzodiazepin-10-yl)-[4-fluoro-2-(3-methyl-pyrazol-1-yl)-phenyl]-methanone solvate with 0.20 ethanol]",276% of control,63,
"Cc1nc(-c2ccc(C(=O)N3Cc4cccnc4Nc4ccccc43)c(Cl)c2)n[nH]1 [Example 24, [2-Chloro-4-(5-methyl-1H-[1,2,4]triazol-3-yl)-phenyl]-(5,11-dihydro-pyrido[2,3-b][1,5]benzodiazepin-6-yl)-methanone]",615% of control,86,
"Cc1ccn(-c2ccc(C(=O)N3Cc4cccnc4Nc4ccccc43)c(C(F)(F)F)c2)n1 [Example 15, (5,11-Dihydro-pyrido[2,3-b][1,5]benzodiazepin-6-yl)-[4-(3-methyl-pyrazol-1-yl)-2-trifluoromethyl-phenyl]-methanone 1:1 salt with hydrochloric acid 0.10 dichloromethane solvate]",,,Urine Volume (% decrease) (Vasopressin V2 [2]; starch only): 98 (1 mg/kg) starch only % decrease; Changes in Urinary Osmolality (Vasopressin V2 [2]): 1363% of control
"Cc1ccnn1-c1ccc(C(=O)N2Cc3cccnc3Nc3ccccc32)c(Cl)c1 [Example 2, [2-Chloro-4-(5-methyl-pyrazol-1-yl)-phenyl] (5,11-dihydro-pyrido[2,3-b] [1,5]benzodiazepin-6-yl)-methanone]",288% of control,61,
"Cc1ccn(-c2ccc(C(=O)N3Cc4cccnc4Nc4ccccc43)c(C(F)(F)F)c2)n1 [Example 14, (5,11-Dihydro-pyrido[2,3-b][1,5]benzodiazepin-6-yl)-[4-(3-methyl-pyrazol-1-yl)-2-trifluoromethyl-phenyl]-methanone 1:1 salt with methanesulfonic acid solvate with 0.15 hexane]",,,Urine Volume (% decrease) (Vasopressin V2 [2]): 83 (1 mg/kg) % decrease; Changes in Urinary Osmolality (Vasopressin V2 [2]; same row's urine volume cell prints 1 mg/kg (footnote says 10 mg/kg)): 321% of control
"Cc1ccn(-c2ccc(C(=O)N3Cc4cccnc4N(C)c4ccccc43)c(C(F)(F)F)c2)n1 [Example 8, (5-Methyl-5,11-dihydro-pyrido[2,3-b][1,5]benzodiazepin-10-yl)-[4-(3-methyl-pyrazol-1-yl)-2-trifluoromethyl-phenyl]methanone]",298% of control,72,
